Converted amounts (≈) assume the structure as drawn. “And” between values parts separate entries of the source, which are not always exact repeats. Identical values can stand only once. Like-named read-outs stand apart in the source and are kept apart here.
Experiments:
[1] = test system: T. brucei; assay: T. brucei growth inhibition; assay type: cell-based, Trypanosoma brucei; conditions: read-out: (D) T. brucei EC50
[2] = test system: S. aureus MRSA (ATCC 33591); assay: MIC susceptibility testing; assay type: cell-based, Staphylococcus aureus; conditions: MRSA ATCC33591; for MIC: Staphylococcus aureus, read-out: (G) MRSA (ATCC33591) MIC
Outline: (§1)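 CLSI broth microdilution with two-fold compound dilutions, in triplicate; cells added in medium at 1×10^6 CFUs/mL, DMSO ≤0.5%. Media: MHB for S. aureus, CA-MHB for E. coli and E. faecium, CA-MHB plus 3% laked horse blood for S. pyogenes (5% CO2).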

[3] = test system: S. pyogenes (ATCC 19615); assay: MIC susceptibility testing; assay type: cell-based; conditions: Streptococcus pyogenes, ATCC19615, S. pyogenes ATCC 19615; read-out: (H) S. pyogenes (ATCC 19615) MIC
Excerpt: Media and culture conditions. Mueller Hinton broth (MHB), cation adjusted Mueller Hinton broth (CA-MHB), and Brain Heart Infusion broth (BHI) were purchased from Becton Dickinson (Franklin Lakes, N.J.). Tryptic soy agar (TSA) plates, TSA with 5% sheep blood plates, and CA-MHB with 3% laked horse blood were purchased from Remel (San Diego, Calif.). MHB was used to assay all Staphylococcus aureus strains. CA-MHB was used for Staphylococcus epidermidis, Enterococcus faecalis, Enterococcus faecium, Escherichia coli, and Pseudomonas aeruginosa. CA-MHB supplemented with 3% laked horse blood was used for Streptococcus pneumoniae and Streptococcus pyogenes. Staphylococcus, Enterococcus, Escherichia, and Pseudomonas strains were cultured at 37° C. with ambient air. Streptococcus strains were cultured in 37° C. with 5% CO2. Separate conditions for radiolabeled precursor uptake assays are described below.
Susceptibility testing: Minimum inhibitory concentration (MIC) determinations were performed in triplicate in 96-well round bottom microtiter plates (Corning, Corning N.Y.) as described by the Clinical and Laboratory Standards Institute (CLSI). Serial two-fold dilutions of compounds were added to plates in 50 μL volumes. An additional 50 μL of media containing bacterial cells (1×10^6 CFUs/mL) was then added to each well. Maximum DMSO concentrations were 0.5%. Plates were incubated at 37° C. for at least 18 h before reading the susceptibility result by optical absorbance (OD600) using a BioTek ELx800. The lowest concentration causing ≥90% growth inhibition compared to the untreated control was recorded as the MIC (and also corresponded to the visual MIC). MICs were measured at least twice and the higher value (if different) was recorded herein.

[4] = test system: C. parvum; assay: C. parvum growth inhibition; assay type: cell-based, Cryptosporidium parvum; conditions: read-out: (J) C. parvum EC50
[5] = molecular target: MetRS (C. parvum) (Cryptosporidium parvum, UniProt Q5CVN0); assay: MetRS (C. parvum) enzyme inhibition; assay type: biochemical; conditions: read-out: (C) MetRS (C. parvum) IC50
[6] = test system: E. faecium VRE (ATCC 51559); assay: MIC susceptibility testing; assay type: cell-based, Enterococcus faecium; conditions: E. faecium ATCC 51559
Outline: as §1

[7] = test system: S. aureus MSSA (ATCC 29213); assay: MIC susceptibility testing; assay type: cell-based, Staphylococcus aureus; conditions: Staphylococcus aureus, S. aureus ATCC 29213; read-out: (F) S. aureus (ATCC 29213) MIC
[8] = test system: T. cruzi; assay: T. cruzi growth inhibition; assay type: cell-based, Trypanosoma cruzi; conditions: read-out: (E) T. cruzi EC50

Chain of MetRS (C. parvum) (Q5CVN0 entry or part of it): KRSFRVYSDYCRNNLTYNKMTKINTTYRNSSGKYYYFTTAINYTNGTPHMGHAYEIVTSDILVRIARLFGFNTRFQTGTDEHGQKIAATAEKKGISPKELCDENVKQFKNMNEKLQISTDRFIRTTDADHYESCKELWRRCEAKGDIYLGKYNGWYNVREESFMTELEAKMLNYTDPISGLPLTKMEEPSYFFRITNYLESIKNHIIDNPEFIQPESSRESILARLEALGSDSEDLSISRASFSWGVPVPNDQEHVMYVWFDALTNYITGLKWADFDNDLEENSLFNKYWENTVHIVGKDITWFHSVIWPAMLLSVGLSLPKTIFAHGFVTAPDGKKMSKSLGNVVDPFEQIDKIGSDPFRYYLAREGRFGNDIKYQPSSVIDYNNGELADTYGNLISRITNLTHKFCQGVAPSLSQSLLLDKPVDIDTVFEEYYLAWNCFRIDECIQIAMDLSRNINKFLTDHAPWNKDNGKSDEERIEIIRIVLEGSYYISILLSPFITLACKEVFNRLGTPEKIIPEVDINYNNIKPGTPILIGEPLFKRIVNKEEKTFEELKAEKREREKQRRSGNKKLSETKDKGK

Row | Compound | EC50 ([1]; Trypanosoma brucei) [nM] | EC50 [1] | (G) MRSA (ATCC33591) MIC [2] [µg/mL] | MIC [2] [µg/mL] | MIC [3] [µg/mL] | EC50 ([4]; Cryptosporidium parvum) [nM] | EC50 [4] [nM] | IC50 [5] [nM] | (I) E. faecium (ATCC 51559) MIC [6] | MIC ([6]; Enterococcus faecium, read-out: (I) E. faecium (ATCC 51559) MIC) [µg/mL] | MIC [7] [µg/mL] | EC50 ([8]; Trypanosoma cruzi) [nM] | EC50 [8] [nM]
1 | COc1cc(Cl)c(Cc2cn(Cc3nc4ccc(Cl)nc4[nH]3)c([S+](C)[O-])n2)cc1OC (stereo not shown) [Compound 2241, 1-({5-chloro-1H-imidazo[4,5-b]pyridin-2-yl}methyl)-4-[(2-chloro-4,5-dimethoxyphenyl)methyl]-2-methanesulfinyl-1H-imidazole] | 2.12 | 1.52 nM and 1.8 nM and 1.71 nM | 0.113 | 0.104 (≈ 0.216 µM) | 0.847 (≈ 1.76 µM) | 1600 | > 2000 | < 40 | 0.0206, μg/ml and 0.0160, μg/ml and 0.0189 μg/ml | 0.0277 (≈ 0.0577 µM) |  |  | 
2 | CCNC(=O)n1c(Cc2ccc(Cl)cc2Cl)cn(Cc2nc3nc(Cl)ccc3[nH]2)c1=O [Compound 2288, 3-({5-chloro-1H-imidazo[4,5-b]pyridin-2-yl}methyl)-5-[(2,4-dichlorophenyl)methyl]—N-ethyl-2-oxo-2,3-dihydro-1H-imidazole-1-carboxamide] | 1.79 |  |  | > 2 | > 2 |  |  |  |  |  | 1.16 (≈ 2.42 µM) | 183 | 
3 | CCn1c(C(=O)c2ccc(OC)cc2Cl)cn(Cc2nc3ccc(Cl)nc3[nH]2)c1=O [Compound 2296, 1-({5-chloro-1H-imidazo[4,5-b]pyridin-2-yl}methyl)-4-(2-chloro-4-methoxybenzoyl)-3-ethyl-2,3-dihydro-1H-imidazol-2-one] | < 0.91 | 0.78 nM |  |  | 0.455 (≈ 1.02 µM) | 62 |  |  |  |  | 0.21 (≈ 0.471 µM) | 5.26 | 7.44
4 | CCn1c(C(O)c2ccc(OC)cc2Cl)cn(Cc2nc3ccc(Cl)nc3[nH]2)c1=O (stereo not shown) [Compound 2297, 1-({5-chloro-1H-imidazo[4,5-b]pyridin-2-yl}methyl)-4-[(2-chloro-4-methoxyphenyl)(hydroxy)methyl]-3-ethyl-2,3-dihydro-1H-imidazol-2-one] | 7.12 |  |  |  | > 8 | 203 |  |  |  |  | 2.98 (≈ 6.65 µM) | 53.8 | 79.7

— patent US11584744B2 (UNIVERSITY OF WASHINGTON, priority 2017, dated 2023)
